# Assay results as given in ChEMBL document CHEMBL4602605, “Fluoroquinolones structural and medicinal developments (2013-2018): Where are we now?” (Bioorg Med Chem, 2019).
# How the values were obtained:
# Pseudomonas aeruginosa [1] = test: Antimicrobial activity against Pseudomonas aeruginosa ATCC 43288 incubated for 18 to 24 hrs by microbroth dilution method; type: functional
# [2] = tested on: Yersinia pseudotuberculosis; test: Antimicrobial activity against Yersinia pseudotuberculosis ATCC 911 incubated for 18 to 24 hrs by microbroth dilution method; type: functional
# Staphylococcus aureus [3] = test: Antimicrobial activity against Staphylococcus aureus ATCC 25923 incubated for 18 to 24 hrs by microbroth dilution method; type: functional
# Enterococcus faecalis [4] = test: Antimicrobial activity against Enterococcus faecalis ATCC 29212 incubated for 18 to 24 hrs by microbroth dilution method; type: functional
# Bacillus cereus = test: Antimicrobial activity against Bacillus cereus 709 Roma incubated for 18 to 24 hrs by microbroth dilution method; type: functional
# [5] = tested on: Mycolicibacterium smegmatis; test: Antimicrobial activity against Mycobacterium smegmatis ATCC 607 incubated for 48 to 72 hrs by microbroth dilution method; type: functional
# Escherichia coli [6] = test: Antimicrobial activity against Escherichia coli ATCC 25922 incubated for 18 to 24 hrs by microbroth dilution method; type: functional
# Escherichia coli [7] = test: Antimicrobial activity against Escherichia coli ATCC 9637 incubated for 24 hrs by CLSI-based broth microdilution method; type: functional; settings: W ATCC 9637, 24 h
# Pseudomonas aeruginosa [8] = test: Antimicrobial activity against Pseudomonas aeruginosa ATCC BAA-427 incubated for 24 hrs by CLSI-based broth microdilution method; type: functional; settings: ATCC BAA-427, 24 h
# Staphylococcus aureus [9] = test: Antimicrobial activity against methicillin-resistant Staphylococcus aureus ATCC 700699 incubated for 24 hrs by CLSI-based broth microdilution method; type: functional; settings: ATCC 700699, 24 h
# Staphylococcus aureus [10] = test: Antimicrobial activity against gentamicin-resistant Staphylococcus aureus ATCC 33592 incubated for 24 hrs by CLSI-based broth microdilution method; type: functional; settings: ATCC 33592, 24 h
# Klebsiella pneumoniae [11] = test: Antimicrobial activity against Klebsiella pneumoniae ATCC 27736 incubated for 24 hrs by CLSI-based broth microdilution method; type: functional; settings: ATCC 27736, 24 h
# Staphylococcus aureus [12] = test: Antimicrobial activity against Staphylococcus aureus ATCC 29213 incubated for 24 hrs by CLSI-based dilution method; type: functional; settings: ATCC 29213, 24 h
# Staphylococcus aureus [13] = test: Antimicrobial activity against Staphylococcus aureus ATCC 25923 incubated for 24 hrs by CLSI-based dilution method; type: functional; settings: ATCC 25923, 24 h
# [14] = tested on: Mycolicibacterium smegmatis; test: Antimicrobial activity against Mycobacterium smegmatis incubated for 30 to 32 hrs by spectrophotometry based assay; type: functional
# PC-3 = test: Growth inhibition of human PC3 cells by MTT assay; type: functional, cell-based
# Aspergillus clavatus = test: Antifungal activity against Aspergillus clavatus after overnight incubation by agar well diffusion method; type: functional
# Candida albicans = test: Antifungal activity against Candida albicans after overnight incubation by agar well diffusion method; type: functional
# Enterococcus faecalis [15] = test: Antimicrobial activity against Enterococcus faecalis ATCC 29212 incubated for 24 hrs by serial dilution method; type: functional; settings: ATCC 29212, 24 h
# Staphylococcus aureus [16] = test: Antimicrobial activity against methicillin-susceptible Staphylococcus aureus ATCC 29213 incubated for 24 hrs by serial dilution method; type: functional; settings: ATCC 29213, 24 h
# Staphylococcus aureus [17] = test: Antimicrobial activity against methicillin-resistant Staphylococcus aureus ATCC 33591 incubated for 24 hrs by serial dilution method; type: functional; settings: ATCC 33591, 24 h
# Escherichia coli [18] = test: Antimicrobial activity against Escherichia coli ATCC 35218 incubated for 24 hrs by serial dilution method; type: functional; settings: ATCC 35218, 24 h
# Klebsiella pneumoniae [19] = test: Antimicrobial activity against Klebsiella pneumoniae ATCC 35657 incubated for 24 hrs by serial dilution method; type: functional; settings: ATCC 35657, 24 h
# Moraxella catarrhalis = test: Antimicrobial activity against Moraxella catarrhalis ATCC 25238 incubated for 24 hrs by serial dilution method; type: functional; settings: ATCC 25238, 24 h
# A549 = test: Growth inhibition of human A549 cells at 10 uM incubated for 48 hrs by MTT assay relative to control; type: functional; settings: A549, 48 h, read-out: GI
# HCT-116 = test: Growth inhibition of human HCT116 cells at 10 uM incubated for 48 hrs by MTT assay relative to control; type: functional; settings: HCT-116, 48 h, read-out: GI
# HeLa = test: Growth inhibition of human HeLa cells at 10 uM incubated for 48 hrs by MTT assay relative to control; type: functional; settings: read-out: GI
# PANC-1 = test: Growth inhibition of human PANC1 cells at 10 uM incubated for 48 hrs by MTT assay; type: functional; settings: PANC-1, 48 h, read-out: GI
# Escherichia coli [20] = test: Antimicrobial activity against penicillin-resistant Escherichia coli at < 1 ug/ml relative to control; type: functional
# [21] = tested on: Mycobacterium tuberculosis; test: Antimicrobial activity against Mycobacterium tuberculosis H37Rv incubated for 10 days by microbroth dilution method; type: functional; settings: 240 h
# Mycobacterium avium = test: Antimicrobial activity against Mycobacterium avium incubated for 10 days by microbroth dilution method; type: functional; settings: 240 h
# Mycolicibacter terrae = test: Antimicrobial activity against Mycobacterium terrae incubated for 10 days by microbroth dilution method; type: functional; settings: 240 h
# Escherichia coli [22] = test: Antimicrobial activity against Escherichia coli ATCC 25922 by CLSI method; type: functional
# Staphylococcus aureus [23] = test: Antimicrobial activity against Staphylococcus aureus ATCC 25923 by CLSI method; type: functional
smiles,measurement,setting,value
CCn1c(CN2CCN(c3ccc([N+](=O)[O-])cc3)CC2)nn(CN2CCN(c3cc4c(cc3F)c(=O)c(C(=O)O)cn4CC)CC2)c1=S,MIC,Pseudomonas aeruginosa [1],0.25 to 0.5 µg/mL
same,MIC,[2],0.25 µg/mL
same,MIC,Staphylococcus aureus [3],0.25 to 0.99 µg/mL
same,MIC,Enterococcus faecalis [4],0.122 µg/mL
same,MIC,Bacillus cereus,0.122 to 0.25 µg/mL
same,MIC,[5],0.244 µg/mL
same,MIC,Escherichia coli [6],≤ 0.03 µg/mL
CCn1cc(C(=O)O)c(=O)c2cc(F)c(-n3cc(CO[C@H]4O[C@H](COC(C)=O)[C@H](OC(C)=O)[C@H](OC(C)=O)[C@H]4OC(C)=O)nn3)c(F)c21,MIC,Escherichia coli [7],12.5 µg/mL
same,MIC,Pseudomonas aeruginosa [8],> 50 µg/mL
same,MIC,Staphylococcus aureus [9],> 50 µg/mL
same,MIC,Staphylococcus aureus [10],> 50 µg/mL
same,MIC,Klebsiella pneumoniae [11],> 50 µg/mL
same,MIC,Staphylococcus aureus [12],> 50 µg/mL
same,MIC,Staphylococcus aureus [13],> 50 µg/mL
COc1c(N2CCN(C)CC2)c(F)cc2c(=O)c(C(=O)N/N=C\c3cccc(C)c3)cn(C3CC3)c12,MIC,[14],42.5 µM
same,IC50,PC-3,10 µg/mL
same,inhibition zone (IZ),Aspergillus clavatus,11 mm
same,inhibition zone (IZ),Candida albicans,10 mm
CCCN(CCC)Cc1cn(-c2cc3c(cc2F)c(=O)c(C(=O)NO)cn3C2CC2)nn1,MIC,Enterococcus faecalis [15],64 µg/mL
same,MIC,Staphylococcus aureus [16],64 µg/mL
same,MIC,Staphylococcus aureus [17],> 64 µg/mL
same,MIC,Escherichia coli [18],64 µg/mL
same,MIC,Klebsiella pneumoniae [19],32 µg/mL
same,MIC,Moraxella catarrhalis,64 µg/mL
same,inhibition of growth at 10 µM,A549,20%
same,inhibition of growth at 10 µM,HCT-116,10%
same,inhibition of growth at 10 µM,HeLa,15%
same,inhibition of growth at 10 µM,PANC-1,15%
CCn1cc(C(=O)O)c(=O)c2cc(F)c(N3CCN(Cn4nc(CN5CCN(c6ccc([N+](=O)[O-])cc6)CC5)n(Cc5ccccc5)c4=O)CC3)cc21,MIC,Pseudomonas aeruginosa [1],0.24 to 0.5 µg/mL
same,MIC,Staphylococcus aureus [3],0.24 to 0.25 µg/mL
same,MIC,Enterococcus faecalis [4],0.48 to 0.5 µg/mL
same,MIC,Bacillus cereus,0.24 to 0.25 µg/mL
same,MIC,[5],0.244 to 0.99 µg/mL
same,MIC,Escherichia coli [6],0.25 to 0.99 µg/mL
COc1c(N2CCN(C)CC2)c(F)cc2c(=O)c(C(=O)N/N=C\c3c(Cl)cccc3Cl)cn(C3CC3)c12,MIC,[14],27 µM
same,IC50,PC-3,4.9 µg/mL
same,inhibition zone (IZ),Candida albicans,9 mm
COc1cc(/C=N\NC(=O)c2cn(C3CC3)c3c(OC)c(N4CCN(C)CC4)c(F)cc3c2=O)cc(OC)c1OC,MIC,[14],81.2 µM
same,IC50,PC-3,8.5 µg/mL
same,inhibition zone (IZ),Aspergillus clavatus,13 mm
same,inhibition zone (IZ),Candida albicans,13 mm
CCCCCCCCOC(=O)c1cn(C2CC2)c2cc(N3CCNCC3)c(F)cc2c1=O,inhibition (INH),Escherichia coli [20],>60%
CCn1cc(C(=O)O)c(=O)c2cc(F)c(-c3cc4cc(Br)ccc4oc3=O)cc21,MIC,[21],6.2 µg/mL
same,MIC,Mycobacterium avium,6.2 µg/mL
same,MIC,Mycolicibacter terrae,6.2 µg/mL
COc1c(N2CCN(C)CC2)c(F)cc2c(=O)c(C(=O)N/N=C\c3cccc(O)c3)cn(C3CC3)c12,MIC,[14],27.2 µM
same,IC50,PC-3,3.4 µg/mL
O=C(NO)c1cn(C2CC2)c2cc(-n3cc(CN4CCCCC4)nn3)c(F)cc2c1=O,MIC,Enterococcus faecalis [15],> 64 µg/mL
same,MIC,Staphylococcus aureus [16],> 64 µg/mL
same,MIC,Staphylococcus aureus [17],> 64 µg/mL
same,MIC,Escherichia coli [18],64 µg/mL
same,MIC,Klebsiella pneumoniae [19],64 µg/mL
same,MIC,Moraxella catarrhalis,64 µg/mL
same,inhibition of growth at 10 µM,A549,10%
same,inhibition of growth at 10 µM,HCT-116,20%
same,inhibition of growth at 10 µM,HeLa,5%
same,inhibition of growth at 10 µM,PANC-1,10%
O=C(NO)c1cn(C2CC2)c2cc(-n3cc(CN4CCOCC4)nn3)c(F)cc2c1=O,MIC,Enterococcus faecalis [15],> 64 µg/mL
same,MIC,Staphylococcus aureus [16],> 64 µg/mL
same,MIC,Staphylococcus aureus [17],> 64 µg/mL
same,MIC,Escherichia coli [18],8 µg/mL
same,MIC,Klebsiella pneumoniae [19],4 µg/mL
same,MIC,Moraxella catarrhalis,8 µg/mL
same,inhibition of growth at 10 µM,A549,15%
same,inhibition of growth at 10 µM,HCT-116,15%
same,inhibition of growth at 10 µM,HeLa,20%
same,inhibition of growth at 10 µM,PANC-1,13%
CCn1cc(C(=O)O)c(=O)c2cc(F)c(-n3cc(CO[C@H]4OC[C@@H](OC(C)=O)[C@H](OC(C)=O)[C@H]4OC(C)=O)nn3)c(F)c21,MIC,Escherichia coli [7],12.5 µg/mL
same,MIC,Pseudomonas aeruginosa [8],> 50 µg/mL
same,MIC,Staphylococcus aureus [9],> 50 µg/mL
same,MIC,Staphylococcus aureus [10],12.5 µg/mL
same,MIC,Klebsiella pneumoniae [11],25 µg/mL
same,MIC,Staphylococcus aureus [12],12.5 µg/mL
same,MIC,Staphylococcus aureus [13],12.5 µg/mL
CC(=O)N1CCN(c2cc3c(cc2F)c(=O)c(C(=O)O)cn3C2CC2)CC1,MIC,Escherichia coli [22],0.5 µg/mL
same,MIC,Staphylococcus aureus [23],0.5 µg/mL
CCN1CCN(c2cc3c(cc2F)c(=O)c(C(=O)O)cn3C2CC2)CC1 [ENROFLOXACIN],MIC,Escherichia coli [22],0.031 µg/mL
same,MIC,Staphylococcus aureus [23],2 µg/mL
